In ChEMBL document CHEMBL1133919, “Identification of selective inhibitors of cyclin dependent kinase 4” (Bioorg Med Chem Lett, 2001):

Tests used:
[1] = target: T1, Cyclin-dependent kinase 4/cyclin D1 (Homo sapiens, UniProt P11802); experiment: Inhibitory activity against Cyclin dependent kinase CDK4/D1; format: protein-complex assay
HCT-116 = experiment: Inhibition of colon carcinoma cell line HCT116 proliferation; format: functional, cell-based; conditions: Homo sapiens
SKUT-1A = experiment: Inhibition of Rb negative Skut 1A cell proliferation; format: functional, cell-based; conditions: Homo sapiens
Skut1B = experiment: Inhibition of Rb positive Skut 1B cell proliferation; format: functional, cell-based; conditions: Homo sapiens
[2] = target: Cyclin-dependent kinase 1/cyclin B (Homo sapiens, UniProt P06493); experiment: Inhibition of CDK1/cyclin B; format: protein-complex assay
[3] = target: Cyclin-dependent kinase 2/cyclin E (Homo sapiens, UniProt P24941); experiment: Inhibition of CDK2/cyclin E; format: protein-complex assay
[4] = target: T1, Cyclin-dependent kinase 4/cyclin D1; experiment: Inhibition of Cyclin dependent kinase CDK4/cyclin D1; format: protein-complex assay
[5] = target: Cyclin-dependent kinase 1 (Homo sapiens) (UniProt P06493); experiment: Inhibition of Cyclin dependent kinase CDK1/B
Chain of Cyclin-dependent kinase 1 (Homo sapiens) (P06493 whole entry, looked up): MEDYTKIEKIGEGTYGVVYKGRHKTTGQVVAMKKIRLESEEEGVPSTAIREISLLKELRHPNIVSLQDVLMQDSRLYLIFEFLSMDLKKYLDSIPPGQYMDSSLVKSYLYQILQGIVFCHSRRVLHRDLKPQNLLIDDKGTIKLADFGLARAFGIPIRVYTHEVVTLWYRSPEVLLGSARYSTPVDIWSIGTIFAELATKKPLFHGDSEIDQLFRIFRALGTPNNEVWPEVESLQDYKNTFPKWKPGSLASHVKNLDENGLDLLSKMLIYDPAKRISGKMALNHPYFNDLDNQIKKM

T1 sequence (P11802 whole entry): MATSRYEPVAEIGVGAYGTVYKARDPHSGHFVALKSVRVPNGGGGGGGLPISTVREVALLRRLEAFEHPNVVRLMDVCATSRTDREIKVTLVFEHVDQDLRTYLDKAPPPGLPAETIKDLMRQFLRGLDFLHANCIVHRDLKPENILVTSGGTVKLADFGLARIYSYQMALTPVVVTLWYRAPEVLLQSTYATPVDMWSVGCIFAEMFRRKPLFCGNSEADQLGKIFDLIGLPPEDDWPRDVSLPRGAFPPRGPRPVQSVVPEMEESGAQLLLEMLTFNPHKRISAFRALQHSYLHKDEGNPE
T1 sequence (P24385 whole entry, further chain): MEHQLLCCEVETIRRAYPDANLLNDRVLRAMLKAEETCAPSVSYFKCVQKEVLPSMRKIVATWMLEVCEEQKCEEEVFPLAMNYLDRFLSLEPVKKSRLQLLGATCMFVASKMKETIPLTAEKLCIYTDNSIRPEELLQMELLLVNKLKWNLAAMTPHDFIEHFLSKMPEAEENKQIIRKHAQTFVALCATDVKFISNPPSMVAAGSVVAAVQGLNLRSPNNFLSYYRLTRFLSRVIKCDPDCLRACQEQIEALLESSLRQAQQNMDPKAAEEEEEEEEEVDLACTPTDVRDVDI

| SMILES | IC50 [1] [µM] | other results |
| --- | --- | --- |
| c1ccc(-c2cccc3c2[nH]c2ccc4ccccc4c23)cc1 | > 341 | – |
| c1ccc2c(c1)[nH]c1ccc3cnccc3c12 | 30 | – |
| Oc1cccc2ccc3[nH]c4c(-c5ccccc5)cccc4c3c12 | 19.5 | – |
| Oc1ccc2ccc3[nH]c4c(-c5ccccc5)cccc4c3c2c1 | – | IC50 [2]: 95 µM; IC50 [3]: 97 µM; IC50 [4]: 3.6 µM; IC50 (HCT-116): 10.2 µM; IC50 (SKUT-1A): 10.7 µM; IC50 (Skut1B): 2.8 µM |
| Oc1ccc2ccc3[nH]c4ccccc4c3c2c1 | 17.4 | – |
| Oc1ccc(-c2cccc3c2[nH]c2ccc4ccc(O)cc4c23)cc1 | 1.9 | IC50 (HCT-116): 2.2 µM; IC50 (SKUT-1A): 5.6 µM; IC50 (Skut1B): 2.3 µM |
| [O-][n+]1ccc2c(ccc3[nH]c4ccccc4c32)c1 | 59 | – |
| Nc1cccc(-c2cccc3c2[nH]c2ccc4ccc(O)cc4c23)c1 | 2.3 | IC50 (HCT-116): 9.6 µM; IC50 (SKUT-1A): 11.6 µM; IC50 (Skut1B): 4.1 µM; IC50 [5]: 74.5 µM |
| Oc1ccc2ccc3[nH]c4ccc(-c5ccccc5)cc4c3c2c1 | 37.5 | – |
| Oc1ccc2c(ccc3[nH]c4c(-c5ccccc5)cccc4c32)c1 | 29 | – |

Further lines, with some results ahead:

| IC50 [1] [µM] | SMILES | other results |
| --- | --- | --- |
| 442 | c1cnc2c(c1)ccc1[nH]c3ccccc3c12 | – |
| 83 | Oc1ccc2ccc3[nH]c4cccc(-c5ccccc5)c4c3c2c1 | – |
| 27.3 | Nc1ccc2ccc3[nH]c4c(-c5ccccc5)cccc4c3c2c1 | – |
| 159 | c1ccc2c(c1)[nH]c1ccc3ccncc3c12 | – |
| 9.9 | Oc1ccc2ccc3[nH]c4c(-c5ccc(Cl)cc5)cccc4c3c2c1 | IC50 (HCT-116): 51 µM; IC50 (SKUT-1A): 36 µM; IC50 (Skut1B): 10.2 µM |
| > 309 | COc1ccc2ccc3[nH]c4c(-c5ccccc5)cccc4c3c2c1 | – |
| 22 | Oc1ccc2ccc3[nH]c4cc(-c5ccccc5)ccc4c3c2c1 | – |
| 5.8 | Oc1cccc2c1ccc1[nH]c3c(-c4ccccc4)cccc3c12 | – |
| 605 | [O-][n+]1ccc2ccc3[nH]c4ccccc4c3c2c1 | – |
| 197 | c1ccc2c(c1)[nH]c1ccc3ncccc3c12 | – |
